Results taken from PMC5073322, “Novel Natural Product-like Caged Xanthones Bearing a Carbamate Moiety Exhibit Antitumor Potency and Anti-Angiogenesis Activity In vivo” (Scientific Reports, 2016).

Experiments:
[1] = tested on: A549/taxol; assay: MTT antiproliferative assay, Taxol-resistant A549; type: cell-based; conditions: read-out: IC50 A549/taxol; MTT, 72 h; Taxol-resistant A549
Description: (§2) The inhibition of tumour cell growth was measured by a modified tetrazolium (MTT) salt assay, as previously described[39]. Cells were cultured in a 96-well plate and treated with culture medium alone or different concentrations of the compounds. The cells were incubated for 72 h, and then, the MTT assay reagent was added. After a 4 h incubation, the formazan product was quantitated at 570 nm. The IC50 values (the concentrations that gave rise to 50% inhibition of cell viability) were calculated using GraphPad Prism 6 using a variable slope (four parameters).

[2] = tested on: A549/cisplatin; assay: MTT antiproliferative assay, cisplatin-resistant A549; type: cell-based; conditions: read-out: IC50 A549/cisplatin, MTT, 72 h
Description: as §2

[3] = tested on: zebrafish embryos (intersegmental vessels); assay: In vivo fluorescent zebrafish angiogenesis assay; conditions: 24 h
Description: Zebrafish has been proposed as a valid alternative animal model for investigating angiogenesis. The effect of 8n on embryonic angiogenesis in zebrafish was evaluated.
Transgenic zebrafish (VEGFR2: GFP) embryos were supplied using the drug screening platform of the Shandong Academy of Sciences Institute; they were grown and maintained according to the same protocols. The screen was carried out in 24-well plates. Compounds were prepared initially as a 10 mg/mL stock solution in dimethyl sulfoxide (DMSO). The stock solution was diluted to the relevant assay concentration with fish water, and 0.5% DMSO served as a vehicle control. The embryos were distributed in 24-well plates, with 10 embryos placed in each well. Then, a diluted solution of each compound was added. The embryos were exposed to the compound solution and incubated at 28.5 °C. After 24 h, the zebrafish were anesthetized with 0.01% tricaine and imaged under a fluorescence microscope (Olympus, Inc.) equipped with a SZX16 microscope and a DP2-BSW digital camera (Olympus, Inc.). The animal experiments were performed in accordance with the approval of the Chinese Academy of Medical Sciences and the Biology Institute of Shandong Academy of Sciences. All studies were performed in accordance with the approved guidelines from the China Zebrafish Resource Center with the approved protocol number of 2012CB944504.

[4] = Water solubility by HPLC; type: physicochemical; conditions: deionized water, stirred overnight, HPLC 290 nm
Source text: The physicochemical characteristics of compounds directly determine their potential drug-like properties. Assessing a compound’s physicochemical properties before performing in vivo evaluations can guide further studies and minimize the time and cost associated with drug discovery. Therefore, parallel to the in vivo study, these solubilities of these compounds in water were experimentally measured using high-performance liquid chromatography (HPLC). Based on the results of full wave scanning, 290 nm was chosen as the maximum absorption wavelength for HPLC detection.
A HPLC system with an ultraviolet (UV) detector was used to detect the solubility of the compounds. The optimal wavelength was 290 nm. Ethanol/water (85:15) was an efficient eluent at a flow rate of 0.5 mL/min. The compounds were stirred in deionized water overnight to maximize the retention of the compounds in solution. Then, the solutions were filtered and the supernatant was used as a fluid sample for HPLC detection. The permeability (Pe) of some of the compounds was tested with the help of a standard PAMPA (pION), as previously reported. PAMPA was performed on a PAMPA Explorer instrument (pION, Inc., Woburn, MA) with the PAMPA Explorer command software (Version 3.7.4.1). The compounds were diluted to 10 mM with the system solution buffer (pH 7.4). Then, 150 μL of the diluted compound solution was transferred to a UV plate, and the UV spectrum was collected and used as a reference. Then, paint the membrane with 5 μL of gastrointestinal tract (GIT) lipid. The acceptor chamber was filled with 200 μL of acceptor solution buffer, and the donor chamber was filled with 200 μL of diluted compound solution. The PAMPA sandwich was assembled and left at 25 °C for 4 h. The UV spectra (240–500 nm) from the donor and the acceptor were collected. The permeability coefficient was calculated with the PAMPA Explorer Command software (Version 3.7.4.1) based on the area under the curve (AUC) of the reference plate, the donor plate, and the acceptor plate. The permeability coefficient of the compound was tested for four times, and the data are shown as the average values. Ketoprofen (4.5×10^−6 cm/s) and propranolol (112.8×10^−6 cm/s) were used as the standards in this assay.

[5] = tested on: HUVECs; assay: Transwell invasion assay; type: cell-based, human; conditions: 0.25 μM
Description: (§1) GA was reported to inhibit tumour angiogenesis and may be a viable drug candidate for anti-angiogenesis and anticancer therapies. Therefore, the anti-angiogenesis activity of the caged xanthone derivative 8n was evaluated. Human umbilical vein endothelial cells (HUVECs) were used in all experiments. Cell migration is critical for endothelial cells to form blood vessels during angiogenesis, tumour growth and metastasis. […] Endothelial cell invasion is a critical part of angiogenesis; therefore, a transwell assay was performed to evaluate the ability of inactivated HUVECs to pass through the transwell membrane barrier in the presence of 8n.
Figure 8 8n had anti-angiogenesis activity in vitro and in vivo. (A) A wound-healing assay was used to evaluate the motility of HUVECs after treatment with 8n for 24 h. (B) Changes in cell motility were evaluated using a transwell assay of cell migration and invasion. (C) The effect of 8n on tube formation by HUVECs. HUVECs were incubated with 8n for 6 h and then transferred to Matrigel for 6 h. (D) Zebrafish embryos treated with blank control or 1, 10, or 50 μg/ml of 8n.
A transwell migration assay was performed as previously described with minor modifications. HUVECs (4×10^4 cells per well) with compound 8n were seeded in the top of transwells (Corning Incorporated) and allowed to migrate for 4 h at 37 °C, 5% CO2 and 1% O2. […]

[6] = tested on: HUVECs; assay: Tube formation assay; type: cell-based, human; conditions: Matrigel
Description: as §1
Figure 8 8n had anti-angiogenesis activity in vitro and in vivo. (A) A wound-healing assay was used to evaluate the motility of HUVECs after treatment with 8n for 24 h. (B) Changes in cell motility were evaluated using a transwell assay of cell migration and invasion. (C) The effect of 8n on tube formation by HUVECs. […] (D) Zebrafish embryos treated with blank control or 1, 10, or 50 μg/ml of 8n.
The tube formation assay was performed as previously reported with some modifications. A 48-well cell culture plate and the tips used were pre-chilled at −20 °C for 10 mins and then carefully coated with Matrigel (200 μL/well; Becton Dickinson, Bedford, MA, USA). Caution was taken to avoid bubbles. […]

For `CC(C)=CCC12OC(C)(C)C3CC(C=C4C(=O)c5c(OC(=O)N6CCC(N7CCCCC7)CC6)cccc5OC431)C2=O` (stereo not shown) [Compound 8n], which IC50 [1] is on record?
Its IC50 is 1.9 ± 0.12 µM.

What about the IC50 [2] of the same compound?
Its IC50 is 1.1 ± 0.17 µM.

What about the “formation of intersegmental vessels” value ([3]; 10 μg/ml or 5 μg/ml) of the same compound?
The value was “considerably inhibited”.

And the “formation of intersegmental vessels” value ([3]; 50 μg/ml)?
The value was “completely blocked”.

What about the “S, water solubility” value [4] of the same compound?
Its value is over 40 mM.

And the “invasion of inactivated HUVECs” value [5]?
Its value is “almost completely inhibited”.

And the “tube-forming ability of HUVECs” value [6]?
The value was “significantly impaired”.
